Source: ChEMBL document CHEMBL1201862, “PubChem BioAssay data set” (2004)
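Interpolation was linear, between the two tested concentrations surrounding the appropriate level; five concentrations were tested over 48 hours in 96-well plates. GI50 = concentration required for 50% inhibition of growth.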 Activity calls are given as the source filed them. No stated cut-off is given here; in the data, active = GI50 up to about 1.1 µM and inactive = higher.

Experiments:
Assay in all cases: NCI-60 cell line screen, 48 h
SK-MEL-5 = tested on: SK-MEL-5
UO-31 = tested on: UO-31
SN12C = tested on: SN12C
OVCAR-8 = tested on: OVCAR-8
SNB-75 = tested on: SNB-75
DLD-1 = tested on: DLD-1
NCI-H460 = tested on: NCI-H460
SF-268 = tested on: SF-268
786-0 = tested on: 786-0
KM12 = tested on: KM12
NCI-H522 = tested on: NCI-H522
HCC 2998 = tested on: HCC 2998
OVCAR-5 = tested on: OVCAR-5
NCI-H226 = tested on: NCI-H226
HCT-15 = tested on: HCT-15
OVCAR-3 = tested on: OVCAR-3
HCT-116 = tested on: HCT-116
M14 = tested on: M14
SF-539 = tested on: SF-539
CAKI-1 = tested on: CAKI-1
HOP-62 = tested on: HOP-62
RPMI-8226 = tested on: RPMI-8226
CCRF-CEM = tested on: CCRF-CEM
LOX IMVI = tested on: LOX IMVI
XF498 = tested on: XF498
M19-MEL = tested on: M19-MEL
U-251 = tested on: U-251
IGROV-1 = tested on: IGROV-1
SK-MEL-2 = tested on: SK-MEL-2
KM-20L2 = tested on: KM-20L2
UACC-257 = tested on: UACC-257
SF-295 = tested on: SF-295
DMS-273 = tested on: DMS-273
TK-10 = tested on: TK-10
K562 = tested on: K562
SNB-19 = tested on: SNB-19
MOLT-4 = tested on: MOLT-4
HT-29 = tested on: HT-29
HOP-92 = tested on: HOP-92
Malme-3M = tested on: Malme-3M
OVCAR-4 = tested on: OVCAR-4
SW-620 = tested on: SW-620
A549 = tested on: A549
A498 = tested on: A498
SK-OV-3 = tested on: SK-OV-3
LXFL 529 = tested on: LXFL 529
NCI-H23 = tested on: NCI-H23
ACHN = tested on: ACHN
COLO 205 = tested on: COLO 205
HL-60 = tested on: HL-60
UACC-62 = tested on: UACC-62
EKVX = tested on: EKVX
SK-MEL-28 = tested on: SK-MEL-28
SNB-78 = tested on: SNB-78
RXF 393 = tested on: RXF 393
HOP-18 = tested on: HOP-18

Question: How did the GI50 (SK-MEL-5) turn out when Cc1cc(Cl)ccc1C1OC(=O)c2c1ccc1ccccc21 (stereo unspecified) was run?
Answer: 58.2 µM (inactive)

Question: What about the GI50 (UO-31) of the same compound?
Answer: > 100 µM (inactive)

Question: What about the GI50 (SN12C) of the same compound?
Answer: > 100 µM (inactive)

Question: And the GI50 (OVCAR-8)?
Answer: > 100 µM (inactive)

Question: What about the GI50 (SNB-75) of the same compound?
Answer: 29.9 µM (inactive)

Question: And the GI50 (DLD-1)?
Answer: > 100 µM (inactive)

Question: What about the GI50 (NCI-H460) of the same compound?
Answer: > 100 µM (inactive)

Question: What about the GI50 (SF-268) of the same compound?
Answer: > 100 µM (inactive)

Question: And the GI50 (786-0)?
Answer: 97.5 µM (inactive)

Question: And the GI50 (KM12)?
Answer: > 100 µM (inactive)

Question: And the GI50 (NCI-H522)?
Answer: > 100 µM (inactive)

Question: What about the GI50 (HCC 2998) of the same compound?
Answer: > 100 µM (inactive)

Question: What about the GI50 (OVCAR-5) of the same compound?
Answer: > 100 µM (inactive)

Question: What about the GI50 (NCI-H226) of the same compound?
Answer: > 100 µM (inactive)

Question: And the GI50 (HCT-15)?
Answer: > 100 µM

Question: What about the GI50 (OVCAR-3) of the same compound?
Answer: > 100 µM (inactive)

Question: And the GI50 (HCT-116)?
Answer: > 100 µM (inactive)

Question: What about the GI50 (M14) of the same compound?
Answer: > 100 µM (inactive)

Question: What about the GI50 (SF-539) of the same compound?
Answer: > 100 µM (inactive)

Question: What about the GI50 (CAKI-1) of the same compound?
Answer: > 100 µM (inactive)

Question: And the GI50 (HOP-62)?
Answer: > 100 µM (inactive)

Question: And the GI50 (RPMI-8226)?
Answer: > 100 µM (inactive)

Question: What about the GI50 (CCRF-CEM) of the same compound?
Answer: > 100 µM (inactive)

Question: And the GI50 (LOX IMVI)?
Answer: > 100 µM (inactive)

Question: What about the GI50 (XF498) of the same compound?
Answer: > 100 µM (inactive)

Question: What about the GI50 (M19-MEL) of the same compound?
Answer: > 100 µM (inactive)

Question: And the GI50 (U-251)?
Answer: > 100 µM (inactive)

Question: And the GI50 (IGROV-1)?
Answer: > 100 µM (inactive)

Question: And the GI50 (SK-MEL-2)?
Answer: > 100 µM (inactive)

Question: What about the GI50 (KM-20L2) of the same compound?
Answer: > 100 µM (inactive)

Question: What about the GI50 (UACC-257) of the same compound?
Answer: > 100 µM (inactive)

Question: What about the GI50 (SF-295) of the same compound?
Answer: > 100 µM (inactive)

Question: What about the GI50 (DMS-273) of the same compound?
Answer: > 100 µM (inactive)

Question: What about the GI50 (TK-10) of the same compound?
Answer: > 100 µM (inactive)

Question: What about the GI50 (K562) of the same compound?
Answer: > 100 µM (inactive)

Question: And the GI50 (SNB-19)?
Answer: > 100 µM (inactive)

Question: What about the GI50 (MOLT-4) of the same compound?
Answer: > 100 µM (inactive)

Question: And the GI50 (HT-29)?
Answer: > 100 µM (inactive)

Question: And the GI50 (HOP-92)?
Answer: > 100 µM (inactive)

Question: And the GI50 (Malme-3M)?
Answer: > 100 µM (inactive)

Question: What about the GI50 (OVCAR-4) of the same compound?
Answer: 23.6 µM (inactive)

Question: What about the GI50 (SW-620) of the same compound?
Answer: > 100 µM (inactive)

Question: And the GI50 (A549)?
Answer: > 100 µM (inactive)

Question: What about the GI50 (A498) of the same compound?
Answer: > 100 µM (inactive)

Question: What about the GI50 (SK-OV-3) of the same compound?
Answer: > 100 µM (inactive)

Question: What about the GI50 (LXFL 529) of the same compound?
Answer: 74.1 µM (inactive)

Question: What about the GI50 (NCI-H23) of the same compound?
Answer: > 100 µM (inactive)

Question: And the GI50 (ACHN)?
Answer: > 100 µM (inactive)

Question: And the GI50 (COLO 205)?
Answer: > 100 µM (inactive)

Question: What about the GI50 (HL-60) of the same compound?
Answer: > 100 µM (inactive)

Question: What about the GI50 (UACC-62) of the same compound?
Answer: > 100 µM (inactive)

Question: What about the GI50 (EKVX) of the same compound?
Answer: > 100 µM (inactive)

Question: What about the GI50 (SK-MEL-28) of the same compound?
Answer: > 100 µM (inactive)

Question: CCOC(=O)C(C)Sc1nnc(COc2ccc(Cl)cc2)n1-c1ccccc1 (stereo unspecified) was tested. Which GI50 (SK-MEL-5) did it give?
Answer: 21.4 µM (inactive)

Question: And the GI50 (UO-31)?
Answer: 14.7 µM (inactive)

Question: What about the GI50 (SN12C) of the same compound?
Answer: 17.9 µM (inactive)

Question: And the GI50 (OVCAR-8)?
Answer: 23.4 µM (inactive)

Question: What about the GI50 (SNB-75) of the same compound?
Answer: 30.6 µM (inactive)

Question: What about the GI50 (DLD-1) of the same compound?
Answer: 19.8 µM (inactive)

Question: And the GI50 (NCI-H460)?
Answer: 17.7 µM (inactive)

Question: What about the GI50 (SF-268) of the same compound?
Answer: 18.3 µM (inactive)

Question: What about the GI50 (786-0) of the same compound?
Answer: 29.6 µM (inactive)

Question: And the GI50 (KM12)?
Answer: 21 µM (inactive)

Question: And the GI50 (NCI-H522)?
Answer: 1.82 µM (inactive)

Question: What about the GI50 (HCC 2998) of the same compound?
Answer: 22.5 µM (inactive)

Question: And the GI50 (OVCAR-5)?
Answer: 26.6 µM (inactive)

Question: What about the GI50 (NCI-H226) of the same compound?
Answer: 21.5 µM (inactive)

Question: And the GI50 (HCT-15)?
Answer: 14.7 µM

Question: What about the GI50 (OVCAR-3) of the same compound?
Answer: 17.4 µM (inactive)

Question: What about the GI50 (HCT-116) of the same compound?
Answer: 21.4 µM (inactive)

Question: What about the GI50 (M14) of the same compound?
Answer: 16.9 µM (inactive)

Question: And the GI50 (SF-539)?
Answer: 21.4 µM (inactive)

Question: What about the GI50 (CAKI-1) of the same compound?
Answer: 16.2 µM (inactive)

Question: What about the GI50 (HOP-62) of the same compound?
Answer: 21.4 µM (inactive)

Question: What about the GI50 (RPMI-8226) of the same compound?
Answer: 19.1 µM (inactive)

Question: What about the GI50 (CCRF-CEM) of the same compound?
Answer: 14.5 µM (inactive)

Question: And the GI50 (LOX IMVI)?
Answer: 14.3 µM (inactive)

Question: What about the GI50 (M19-MEL) of the same compound?
Answer: 19.1 µM (inactive)

Question: What about the GI50 (U-251) of the same compound?
Answer: 19.5 µM (inactive)

Question: What about the GI50 (SNB-78) of the same compound?
Answer: 26.1 µM (inactive)

Question: What about the GI50 (IGROV-1) of the same compound?
Answer: 26.8 µM (inactive)

Question: What about the GI50 (SK-MEL-2) of the same compound?
Answer: 13.4 µM (inactive)

Question: And the GI50 (RXF 393)?
Answer: 22.9 µM (inactive)

Question: What about the GI50 (KM-20L2) of the same compound?
Answer: 18.5 µM (inactive)

Question: What about the GI50 (UACC-257) of the same compound?
Answer: 23.6 µM (inactive)

Question: What about the GI50 (SF-295) of the same compound?
Answer: 22 µM (inactive)

Question: And the GI50 (DMS-273)?
Answer: 16.4 µM (inactive)

Question: And the GI50 (TK-10)?
Answer: 27.5 µM (inactive)

Question: And the GI50 (K562)?
Answer: 13.6 µM (inactive)

Question: What about the GI50 (SNB-19) of the same compound?
Answer: 19.3 µM (inactive)

Question: What about the GI50 (HOP-18) of the same compound?
Answer: 49 µM (inactive)

Question: What about the GI50 (HT-29) of the same compound?
Answer: 18 µM (inactive)

Question: And the GI50 (HOP-92)?
Answer: 20.8 µM (inactive)

Question: And the GI50 (Malme-3M)?
Answer: 25.8 µM (inactive)

Question: And the GI50 (OVCAR-4)?
Answer: 20.6 µM (inactive)

Question: What about the GI50 (SW-620) of the same compound?
Answer: 14.2 µM (inactive)

Question: And the GI50 (A549)?
Answer: 43.7 µM (inactive)

Question: What about the GI50 (SK-OV-3) of the same compound?
Answer: 36.1 µM (inactive)

Question: What about the GI50 (LXFL 529) of the same compound?
Answer: 16.4 µM (inactive)

Question: What about the GI50 (NCI-H23) of the same compound?
Answer: 20.1 µM (inactive)

Question: What about the GI50 (ACHN) of the same compound?
Answer: 17.5 µM (inactive)

Question: What about the GI50 (COLO 205) of the same compound?
Answer: 18.4 µM (inactive)

Question: And the GI50 (HL-60)?
Answer: 18.5 µM (inactive)

Question: What about the GI50 (UACC-62) of the same compound?
Answer: 17.3 µM (inactive)

Question: And the GI50 (EKVX)?
Answer: 24.6 µM (inactive)

Question: What about the GI50 (SK-MEL-28) of the same compound?
Answer: 21.3 µM (inactive)
